What all share (format): cell-based
Assay [1] concerns NRF2 (NF-E2-related factor 2) transcription factor. As to the kind of experiment: Cignal ARE Reporter Assay, NRF2-mediated luciferase gene expression in HEK293 cells. The note with it: HEK293, 24 h. The procedure: 2017 December; 23(14):1875-1883. doi: 10.1177/1352458517690617. Epub 2017 Feb.
The experiments were performed using HEK293 cells (Sigma, St. Louis, Mo.; cat. #85120602) seeded at 50,000 per well in a 96 well white opaque-wall tissue culture plates. Cells were transfected by mixing Cignal Reporter Assay firefly/renilla luciferase constructs (cat. # CCS-5020L; Qiagen) with Attractene Transfection Reagent (Qiagen) in Opti-MEM (ThermoFisher Scientific, Waltham, Mass.) supplemented with 1% MEM Non-essential amino acid solution without L-glutamine (Sigma; cat. #M7145). After medium change test materials were added and their effect on NRF2 induction was quantified 24 h later with the Dual-Luciferase Reporter Assay System (cat. #E1960; Promega, Madison, Wis.).
The ARE (antioxidant response element) reporter is a mixture of a Nrf2-responsive luciferase construct encoding the firefly luciferase reporter gene under the control of a minimal (m)CMV promoter and tandem repeats of the ARE transcriptional response element, and a constitutively expressing Renilla element (40:1), which acts as an internal control for normalizing transfection efficiencies and monitoring cell viability. […] Signal quantification was obtained with ThermoFisher Scientific Luminoskan Ascent Microplate Luminometer.
A general note: A reporter such as luciferase makes a cellular process visible.

Assay [2] relates to cultured human keratinocytes (KCs). As to the kind of experiment: Microarray genome-wide expression, IDMF vs. CTL, MS-associated genes. On the procedure: RNA sample processing and microarray hybridizations were performed using the Affymetrix Human Genome U133 Plus 2.0 array platform. DNA microarray samples evaluated included IDMF- and vehicle-treated KCs (n=2 replicates per group). Samples were normalized using the robust multichip average (RMA) algorithm. Identification of probe sets with detectable expression was performed using the MAS 5.0 method, which identifies probe sets with above-background expression based upon the Wilcoxon signed rank test. To limit redundancy in downstream analyses, a single probe set was chosen to represent each protein-coding human gene featured on the microarray platform. This representative was chosen as the probe set with highest expression for each protein-coding human gene. These probe sets were then additionally filtered to include only those with detectable expression in at least 1 of the 4 samples (P<0.05, Wilcoxon signed rank test). Overall, this yielded a total of 12330 protein-coding genes that were included in analyses, with each gene represented by a single representative probe set. Bayesian linear models and moderated t-statistics were then used to evaluate differential expression for each of the 12330 genes (IDMF vs. CTL treatment; R package: limma). To control the false discovery rate (FDR), raw p-values generated from linear model analyses were adjusted using the Benjamini-Hochberg method.
Genes associated with multiple sclerosis were identified based upon four established database sources: (1) the NHGRI-EBI genome-wide association (GWA) study catalogue, (2) the Disease Ontology (DO) database, (3) the DisGeNET database, and (4) the Medical Subject Heading (MESH) database. While there is some overlap between the various databases, the variation in identified genes from one database to the other reflects the fact that the science is still developing and has uncertainties. Nevertheless, as discussed below, efforts were undertaken to hone in on genes common to multiple databases. […]

A further assay relates to human fetal astrocytes. Description: A1 v A2 marker activation, RNA-seq of H2O2-stimulated astrocytes. The note with it: 2.5 μM, 24 hrs, H2O2 (50 μM) stimulated. On the procedure: The treated cells were stimulated with H2O2 (50 μM) for 20 min and the RNA extracted 1 day later and sequenced using the Illumina HiSeq 2000 with an average of 39.3 million reads per sample. Reads were mapped to the GHch38/hg38 genome. 13,968 protein-coding genes had detectable expression on average among the 6 samples. Differentially expressed genes (DEGs) were identified using negative binomial models with FDR threshold of <0.10 and fold change (FC) criteria (FC>1.30 or FC<0.77). Gene set enrichment testing was performed using public database annotations. Motif enrichment with respect to DEG up-stream regions was characterized using semiparametric generalized additive logistics models. The overlap between the identified DEGs and MS-associated genes, i.e., genes from MS patients and genes linked to inflammatory (A1) and ischemic (A2) astrogliosis.

Setting [3] is: genes common to at least two of four databases.

Counter-ions that a name gives are not always drawn.

This is an account of results in patent US20220142967A1, “Methods and Compositions for the Treatment of Multiple Sclerosis” (SYMBIONYX PHARMACEUTICALS INC, priority 2018, published 2022).

On to `COC(=O)/C=C/C(=O)O[C@H]1CO[C@H]2[C@@H]1OC[C@H]2OC(=O)/C=C/C(=O)OC` [IDMF, isosorbide di-(methyl fumarate)], for which, in assay [1] (1 μg/ml), the “Fold Change v. water control (1), NRF2-mediated luciferase gene expression” value is given as 2.78 fold. Also, the “Fold Change v. water control (1), NRF2-mediated luciferase gene expression” value in assay [1] (10 μg/ml) is reported as 4.61 fold. Besides, the “average fold-change (IDMF/CTL) of MS-associated genes vs. randomly sampled gene sets” value in assay [2] (76 MS-associated genes from the Disease Ontology (DO) database, P<0.001) is “significantly lower”. In assay [2] (setting [3]), the “MS-associated genes most strongly decreased” value is “ICAM1, PLAT, and MMP9”; the “MS-associated genes most strongly increased” value is “POPDC3, MMP3, and DDAH1”. Further, in the assay with human fetal astrocytes, the ICAM1 expression result is “downregulate”, the “expression of genes linked to A2-polarization” value was “tended to increase the expression” and the “expression of genes linked to pan-reactive gliosis” value was “decreasing”.
